# Measured values: patent publication US8298522B1, “Methods of modulating MUC1 expression to inhibit inflammation” (priority 2005, dated 2012)
# *1 amine or outer side, *2 acyl side, *3 side chain or, on linkers, in order; H or OH if unused. Where a SMILES comes first, the peptide text is derived from it. Bridges are numbered along the chain shown (N, C = ends). Roman numbers before positions name the chains, in order. [ ]: non-standard residue; d: D form. Actinocin(9to1) = Cc1c2oc3c(C)ccc(C(=O)[*:1])c3nc-2c(C(=O)[*:2])c(N)c1=O; NMeV = CN[C@H](C(=O)O)C(C)C; d = 2'-deoxy (DNA); Sar = CNCC(=O)O; r = 2'-OH (RNA)
# Tests used:
# [1] = tested on: ELAM-1 promoter activity in A549 lung carcinoma cells; assay: ELAM-1 promoter-luciferase assay in A549 cells after MUC1 siRNA transfection; format: cell-based, human; conditions: 8.0 nM siRNA 24 h, 10 ng/ml flagellin 6 h
# Procedure: To assess the effects of endogenous MUC1 expression on NF-κB activation, ELAM-1 promoter activity in A549 lung carcinoma cells following transfection with MUC1 with small interfering RNA (siRNA) duplexes was measured. Inhibition of MUC1 expression was confirmed by FACS analysis following treatment with the MUC1 siRNA but not a control RNA (data not shown).
# Referring now to FIG. 3, twenty four hours after transfection with the control RNA or MUC1 siRNA, A549 cells were treated with 10 ng/ml of flagellin or an equivalent amount of the fliC control for 6 hours. Cell lysates were prepared and luciferase activity measured as indicated in the examples section. […]
# HEK293T and A549 cells were seeded in 24-well plates at 2×10^5 and 5×10^4 cells/well respectively, incubated overnight, and transfected with the 0.4 μg/well of the NF-κB responsive pELAM-1 promoter-luciferase plasmid and 10 ng/well of the phRL-TK plasmid (Promega) as an internal control using 2 μl/well of Lipofectamine™2000 (Invitrogen) according to the manufacturer's instructions. The cells were incubated for 24 h at 37° C. in 5% CO2, treated with 10 ng/ml PAK flagellin or an equivalent volume of the fliC negative control for 6 h, and relative luciferase activity determined. […] Data are expressed as mean relative luciferase activity±SEM of triplicate or quadruplicate determinations.
# MUC1 = MUC1 siRNA knockdown of MUC1 expression in primary NHBE cells (immunoblot, FACS); format: cell-based, human; conditions: 1.5 μg siRNA, vs control RNA
# Procedure: (§1) Primary NHBE cells were nucleofected with 1.5 μg of a MUC1 siRNA or a non-targeting control RNA. At 48 h post-nucleofection, total MUC1 protein was determined by immunoblotting as described (20) (A) and cell surface MUC1 was determined by FACS analysis using anti-MUC1 (GP1.4, mouse IgG1, κ, Biomeda) as primary antibody and R-Phycoerythrin-conjugated goat anti-mouse IgG (Santa Cruz) as secondary antibody. Mouse IgG1 (κ isotype, eBioscience) was used as primary antibody to determine threshold fluorescence signal. (B). (C) Cells were stimulated with 10 ng/ml of flagellin for 6 h and IL-8 levels in basolateral medium were measured.
# Macrophages were harvested from BALF or the peritoneal space, and erythrocytes lysed with 10 mM Tris-HCl, pH 7.2 containing 150 mM NH4Cl. Peritoneal macrophages (PM) were harvested after treating mice i.p. with 3% thioglycollate for 3 days. The recovered cells consisted of >95% macrophages as determined by immunofluorescence using the F4/80 macrophage marker (eBioscience). Cells were seeded in 24-well tissue culture plates at 1.0×10^5 cells/well in DMEM containing 10% FBS, […], and allowed to adhere for 24 h before flagellin or LPS (PA10, Sigma) treatment. […]
# [2] = tested on: IL-8 levels in primary NHBE cells; assay: Flagellin-induced IL-8 levels in MUC1 siRNA-treated primary NHBE cells; format: cell-based, human; conditions: 10 ng/ml flagellin 6 h, basolateral medium
# Procedure: as §1
# Macrophages were harvested from BALF or the peritoneal space, and erythrocytes lysed with 10 mM Tris-HCl, pH 7.2 containing 150 mM NH4Cl. Peritoneal macrophages (PM) were harvested after treating mice i.p. with 3% thioglycollate for 3 days. The recovered cells consisted of >95% macrophages as determined by immunofluorescence using the F4/80 macrophage marker (eBioscience). […]
# (§2) Mouse KC and TNF-α and human IL-8 were quantified by ELISA using commercially available antibodies (eBioscience; R&D Systems). All samples were analyzed in triplicate and standard curves were performed on each plate.
# [3] = tested on: MUC1 protein in A549 cells; conditions: A549 cells, 5.0 μg/ml AcD or 10 μg/ml Chx, no NE
# Procedure: Confluent A549 cells were incubated in the presence or absence of 5.0 μg/ml of actinomycin (AcD) or 10 μg/ml of cycloheximide (Chx) for 1 hr and either non-treated or treated for 24 hr with 100 nM of NE. MUC1 protein levels in cell lysates (A) and spent media (B) were measured by ELISA. Each bar represents the mean±SEM (n=3). […] (C) Aliquots of spent media obtained from confluent A549 cells were non-treated (0 hr) or treated for 24 hr with 100 nM NE or vehicle control and MUC1 levels in the spent media determined by ELISA. Each bar represents the mean±SEM (n=3).
# A549 cells were seeded at 5.0×10^4 cells/well in 24-well plates in Dulbecco's Modified Eagle Medium (DMEM) containing 10% fetal bovine serum (FBS), 100 U/ml penicillin, and 100 μg/ml streptomycin (all from Invitrogen, Carlsbad, Calif.) and incubated at 37° C. in a humidified CO2 incubator. Confluent monolayers were washed with serum-free DMEM and treated with 100 nM (2.6 U/ml) NE or vehicle control (PBS) for 24 hr. In some experiments, the cells were pretreated for 1 hr with 5.0 μg/ml of actinomycin D or 10 μg/ml of cycloheximide prior to NE treatment. Following treatment, cell-conditioned media were collected, and the cells were washed with PBS and lysed with 500 μl/well of PBS containing 1.0% Triton X-100, 1.0% sodium deoxycholate, 1.0% protease inhibitor cocktail, and 2.0 mM phenylmethylsulfonyl fluoride (PMSF). Lysates and conditioned media were incubated for 20 min at 80° C. to inactivate residual NE, insoluble material removed by centrifugation at 14,000×g for 10 min at 4° C., and protein concentrations measured by the procedure of Bradford using bovine serum albumin as standard.
# ELISA. A549 cell lysates or cell-conditioned culture media were centrifuged at 10,000×g for 10 min at 4° C., added in triplicate to 96-well ELISA plates (MaxiSorb™, Nalge Nunc, Rochester, N.Y.), and incubated overnight at 4° C. Wells were blocked for 1 hr at room temperature (about 22° C.) with PBS, pH 7.0, containing 10 mg/ml BSA and 50 mg/ml sucrose and washed with PBS containing 0.05% Tween 20 (PBS-T). The samples were reacted for 2 hr at room temperature with 200 μg/ml of primary MUC1 antibody (GP1.4), washed with PBS-T, reacted for 2 hr at room temperature with 200 μg/ml of secondary antibody (peroxidase-conjugated goat antimouse IgG) (KPL, Gaithersburg, Md.), and washed with PBS-T. Bound antibodies were detected with tetramethylbenzidine substrate (SureBlue™, KPL), the substrate reaction stopped with 1 N HCl, and absorbencies at 450 nm measured using a microplate spectrophotometer (Dexall, Gaithersburg, Md.).
# TLR5 [4] = target: T1, TLR5 (Homo sapiens, UniProt O60602); assay: cell-based or functional assay
# [5] = tested on: MUC1 transcription (MEK/ERK signaling pathway); assay: TNF-α induced MUC1 expression in A549 lung epithelial cells; format: cell-based, human
# Excerpt: TNF-α induces MUC1 expression through a MAP kinase pathway in human lung epithelial cells. TNF-α stimulates MUC1 transcription and protein expression in lung epithelial cells. Activation of MAP kinases and NF-κB was verified using Western blot analysis. […] TNF-α activate all three MAP kinases (ERK, p38, and JNK) as well as NF-κB. […] TNF-α stimulates MUC1 production in A549 cells through transcriptional activation via the MEK/ERK signaling pathway.
# [6] = tested on: ELAM-1 promoter (NF-κB activation, TLR5 signaling) in HEK293T cells; assay: ELAM-1 promoter-luciferase reporter assay in HEK293T cells; format: cell-based, human; conditions: 10 ng/ml PAK flagellin, 6 h
# Excerpt: The relationship between TLR5 and MUC1 signaling in response to flagellin was investigated utilizing TLR5-expressing cells in the absence or presence of MUC1 expression. Initially, we screened a number of different airway and non-airway cell lines by Western blotting and/or real-time PCR with the goal of identifying a TLR5+/MUC1− host cells for transfection of the pMUC1 expression plasmid. Referring now to FIG. 1A, (A) HEK293T cells were transfected with pcDNA3.1 empty vector or the pMUC1 expression plasmid. After trypsinization, cells were reacted with normal mouse IgG or mouse anti-MUC1 antibody followed by PE-conjugated goat anti-mouse IgG antibody and examined by FACS analysis. […] Cell lysates were prepared and relative luciferase activity measured as indicated in Materials and Methods. […]
# HEK293T and A549 cells were seeded in 24-well plates at 2×10^5 and 5×10^4 cells/well respectively, incubated overnight, and transfected with the 0.4 μg/well of the NF-κB responsive pELAM-1 promoter-luciferase plasmid and 10 ng/well of the phRL-TK plasmid (Promega) as an internal control using 2 μl/well of Lipofectamine™2000 (Invitrogen) according to the manufacturer's instructions. The cells were incubated for 24 h at 37° C. in 5% CO2, treated with 10 ng/ml PAK flagellin or an equivalent volume of the fliC negative control for 6 h, and relative luciferase activity determined. […]
# TLR5 [7] = target: T1, TLR5; assay: Flagellin-driven IL-8 release in HEK293T cells with or without transfected TLR5; format: cell-based; design: V5-His (vector pEF6/V5-His); expressed in transfected cells; host or cells: HEK293T
# Procedure: TLR5 mediates flagellin-stimulated innate immune responses. Because TLR5 and MUC1/Muc1 are flagellin receptors and both are expressed by airway macrophages and epithelial cells the relationship between MUC1 and TLR5 in response to flagellin in HEK293T cells stably transfected with a MUC1 expressing plasmid and flagellin-driven IL-8 release was determined following transient transfection with a TLR5 expressing plasmid. HEK293T cells express TLR5 but not MUC1. […] Flagellin-induced increase in IL-8 release was completely abolished in cells co-transfected with MUC1 and TLR5. […] HEK293T cells stably transfected with the pcDNA3.1 empty vector (A) or plasmids encoding the full-length MUC1 or MUC1-ACT (B) were transiently transfected with a TLR5 expression plasmid or empty vector. At 24 h post-transfection, the cells were treated for 6 h with 10 ng/ml of flagellin or PBS, and IL-8 levels in medium were measured. […]
# as §2
# T1 sequence (O60602 21-858): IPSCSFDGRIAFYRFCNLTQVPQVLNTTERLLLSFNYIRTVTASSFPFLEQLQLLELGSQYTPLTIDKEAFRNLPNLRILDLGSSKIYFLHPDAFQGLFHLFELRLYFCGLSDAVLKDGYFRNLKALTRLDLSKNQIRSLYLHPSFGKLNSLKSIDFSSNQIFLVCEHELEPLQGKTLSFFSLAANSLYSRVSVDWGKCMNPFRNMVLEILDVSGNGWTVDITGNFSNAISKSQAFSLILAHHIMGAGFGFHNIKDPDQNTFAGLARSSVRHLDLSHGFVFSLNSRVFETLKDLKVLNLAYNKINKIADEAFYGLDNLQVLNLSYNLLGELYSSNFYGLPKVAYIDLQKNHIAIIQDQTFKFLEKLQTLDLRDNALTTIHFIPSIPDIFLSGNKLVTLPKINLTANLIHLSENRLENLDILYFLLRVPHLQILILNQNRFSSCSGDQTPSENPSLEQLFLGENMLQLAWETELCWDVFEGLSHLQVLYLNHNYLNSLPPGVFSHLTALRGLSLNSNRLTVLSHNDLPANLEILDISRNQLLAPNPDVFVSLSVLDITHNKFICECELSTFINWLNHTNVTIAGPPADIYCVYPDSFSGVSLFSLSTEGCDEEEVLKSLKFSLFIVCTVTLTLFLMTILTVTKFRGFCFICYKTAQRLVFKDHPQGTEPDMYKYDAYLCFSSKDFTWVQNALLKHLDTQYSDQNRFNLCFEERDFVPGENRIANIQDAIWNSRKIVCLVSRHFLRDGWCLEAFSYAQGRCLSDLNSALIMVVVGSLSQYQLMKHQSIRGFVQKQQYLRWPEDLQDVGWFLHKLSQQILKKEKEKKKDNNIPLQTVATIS
molecule,measurement,setting,value
"MUC1 siRNA: 21-bp siRNA with a sequence derived from the MUC1 gene (Dharmacon); sense SEQ ID NO: 2, antisense SEQ ID NO: 3 (sense GUUCAGUGCCCAGCUCUACTT; antisense GUAGAGCUGGGCACUGAACTT; sugars from the 5' end r19 d2, backbone not given here)",effect on flagellin-induced ELAM-1 promoter activity compared with control RNA,[1],significantly increased
same,decrease in the number of cells with surface MUC1 expression,"MUC1; 48 h, FACS",67%
same,knockdown of total cellular MUC1 expression,"MUC1; 48 h post-nucleofection, immunoblot",approximately 95%
same,greater flagellin-induced IL-8 levels compared with control RNA,[2],50%
"Cc1c2oc3c(C)ccc(C(=O)N[C@@H]4C(=O)N[C@H](C(C)C)C(=O)N5CCC[C@H]5C(=O)N(C)CC(=O)N(C)[C@@H](C(C)C)C(=O)O[C@@H]4C)c3nc-2c(C(=O)N[C@@H]2C(=O)N[C@H](C(C)C)C(=O)N3CCC[C@H]3C(=O)N(C)CC(=O)N(C)[C@@H](C(C)C)C(=O)O[C@@H]2C)c(N)c1=O [AcD, actinomycin D] (I: T[dV]P[Sar][NMeV] / II: T[dV]P[Sar][NMeV]; ester I:1-I:C, II:1-II:C; linker I:N-II:N via Actinocin(9to1))",effect of treatment alone on cellular MUC1 levels,[3],did not significantly affect
P. aeruginosa strain K (PAK) flagellin (from UniProt P21184 2-394) (ligand),"IL-8 release (HEK293T cells transfected with empty vector, endogenous TLR5; 10 ng/ml flagellin for 6 h vs PBS)",TLR5 [4],55 % increase
same,IL-8 release (HEK293T cells transiently transfected with TLR5 expression plasmid; 10 ng/ml flagellin for 6 h vs PBS),TLR5 [4],164 % increase
same,"relative luciferase activity (ELAM-1 promoter-luciferase reporter, HEK293T cells, 10 ng/ml flagellin vs fliC negative control)",TLR5 [4],10 fold
N#CC(=C(/N)Sc1ccccc1N)/C(C#N)=C(\N)Sc1ccccc1N [U0126],effect on TNF-α induced MUC1 transcription,"[5]; A549 cells, pretreatment with U0126",completely blocked
"C[C@@H]1C[C@@H]([C@H](O)CC2CC(=O)NC(=O)C2)C(=O)[C@@H](C)C1 [Chx, cycloheximide]",effect of treatment alone on cellular MUC1 levels,[3],did not significantly affect
TNF-α,effect on MUC1 protein and mRNA levels,[5]; human lung epithelial (A549) cells,increased both MUC1 protein and mRNA levels
"PAK flagellin: P. aeruginosa strain K flagellin purified by differential centrifugation, single 50 kDa protein band (protein) ALTVNTNIASLNTQRNLNNSSASLNTSLQRLSTGSRINSAKDDAAGLQIANRLTSQVNGLNVATKNANDGISLAQTAEGALQQSTNILQRMRDLSLQSANGSNSDSERTALNGEVKQLQKELDRISNTTTFGGRKLLDGSFGVASFQVGSAANEIISVGIDEMSAESLNGTYFKADGGGAVTAATASGTVDIAIGITGGSAVNVKVDMKGNETAEQAAAKIAAAVNDANVGIGAFSDGDTISYVSKAGKDGSGAITSAVSGVVIADTGSTGVGTAAGVTPSATAFAKTNDTVAKIDISTAKGAQSAVLVIDEAIKQIDAQRADLGAVQNRFDNTINNLKNIGENVSAARGRIEDTDFAAETANLTKNQVLQQAGTAILAQANQLPQSVLSLLR",increase in relative luciferase activity (ELAM-1 promoter) compared with fliC negative control,[6],greater than 10 fold
same,increase in IL-8 release compared with PBS treatment,"TLR5 [7]; HEK293T cells transfected with TLR5, 10 ng/ml flagellin 6 h",164%
same,increase in IL-8 release compared with PBS treatment,"TLR5 [7]; HEK293T cells transfected with empty vector, 10 ng/ml flagellin 6 h",55%
